Test results as given in article PMC5430962, “Retro-inverso Urokinase Receptor Antagonists for the Treatment of Metastatic Sarcomas” (Scientific Reports, 2017).
[ ]: non-standard residue; d: D form. Aib = CC(C)(N)C(=O)O

What was measured:
HT1080 cells = experiment: Matrigel invasion kinetics, xCELLigence RTCA, HT1080; assay type: cell-based, human
Description: (§1) This assay was performed using E-well plates and the xCELLigence RTCA technology as described. Bottom wells were coated with 20 µg/well matrigel diluted in serum free medium. Matrigel was allowed to polymerize for 1 hr at 37 °C prior to seeding cells (1 × 10^4 cells/well) suspended in growth medium plus/minus RI peptides. Cells that cross matrigel adhere to the bottom of plates causing impedance changes that are proportional to the number of invading cells, and are expressed as a cell index value. Matrigel invasion was monitored for 20 hr. The experiments were performed three times in quadruplicate.

[1] = test system: chondrosarcoma Sarc cells; experiment: Matrigel invasion kinetics, xCELLigence RTCA, Sarc; assay type: cell-based, human; conditions: 10 nM, 10% FBS, 20 hr
Description: as §1

[2] = test system: Akt (Ser473) phosphorylation; experiment: Akt phosphorylation by Western blot in RBL-2H3/ETFR cells; assay type: cell-based, rat; conditions: 0 to 10 minutes
Description: (§2) RBL-2H3/ETFR grown to semi-confluence, were exposed to DMEM alone, 10 nM fMLF with/without 10 nM RI-3 at 37 °C in humidified air with 5% CO2. At the indicated times, cells were lysed in RIPA buffer and cell lysate protein content was measured by a colorimetric assay. Western blot analysis of AKT phosphorylation was performed as previously described using anti-phospho-Akt (Ser473) (pAKT) Ab (Cell Signaling) and anti-Akt mAb (R&D System). The effects of fMLF with/without 10 nM RI-3 were analyzed at the level of global kinase phosphorylation, using the dot-blot Proteome Profiler^TM Array Human PhosphoKinase Array Kit (R&D Systems), according to manufacturer’s instructions. Briefly, 300 µg of protein were applied on each membrane and the signals were detected as described for Western blot. The pixel density of each spot was measured using NIH Image 1.62 software. The intensity of positive control spots was used to normalize results between the four membranes. The intensity for each spot was then averaged over the duplicate spots.

Akt(S473) = experiment: Phospho-kinase array, RBL-2H3/ETFR cells; assay type: cell-based, rat; conditions: 10 nM fMLF plus 10 nM peptide, 10 min
Description: as §2

CREB(S133) = experiment: Phospho-kinase array, RBL-2H3/ETFR cells; assay type: cell-based, rat; conditions: 10 nM fMLF plus 10 nM peptide, 10 min
Description: as §2

[3] = test system: ERK1/2(T202/Y204/T185/Y187); experiment: Phospho-kinase array, RBL-2H3/ETFR cells; assay type: cell-based, rat; conditions: 10 nM fMLF plus 10 nM peptide, 10 min
Description: as §2

FAK(Y397) = experiment: Phospho-kinase array, RBL-2H3/ETFR cells; assay type: cell-based, rat; conditions: 10 nM fMLF plus 10 nM peptide, 10 min
Description: as §2

Fgr(Y412) = experiment: Phospho-kinase array, RBL-2H3/ETFR cells; assay type: cell-based, rat; conditions: 10 nM fMLF plus 10 nM peptide, 10 min
Description: as §2

p38α(T180/Y182) = experiment: Phospho-kinase array, RBL-2H3/ETFR cells; assay type: cell-based, rat; conditions: 10 nM fMLF plus 10 nM peptide, 10 min
Description: as §2

[4] = test system: GFP-Sarc cells on HUVEC monolayer; experiment: GFP-Sarc cell adhesion onto endothelium; assay type: cell-based, human; conditions: 10 nM
Description: GFP-tagged Sarc cells were seeded on an endothelial monolayer as previously described. Briefly, sterile round glass coverslips (12 mm in diameter) were coated with 1:8 diluted matrigel (Becton Dickinson). HUVEC (5 × 10^4 cells in 200 μL/well) were seeded onto matrigel and allowed to form a monolayer for ~24 hr at 37 °C, 5% CO2 prior to seeding GFP-Sarc cells (1 × 10^4 cells/well) suspended in complete endothelial medium plus diluents or 10 nM RI-3. At the indicated times, cell-associated fluorescence was assessed by reading cells with the fluorescence plate reader. In a subset of experiments, after 2 hr, cells were stained with rhodamine-conjugated phalloidin and green fluorescent Sarc cells were identified on multiple z-series collected at 0.20 µm intervals using a confocal microscope (Carl Zeiss).

Sarc cells = experiment: Growth, vascularization and circulating tumor cells of subcutaneous Sarc tumors in nude mice; assay type: in vivo, Foxn1nu/nu female nude mice; conditions: 6 mg/Kg i.p. every day for 10 days
Description: To evaluate the effect of RI-3 on tumor growth and vascularization, Sarc cells were injected, as a single-cell suspension (1 × 10^6 cells in 100 µl of sterile PBS, 97% viability), subcutaneously in the flanks of sixteen six-eight weeks old, Foxn1nu/nu female nude mice (Harlan). Animals were randomized into two 8-mice groups with the treatment group receiving 6 mg/kg RI-3 by intra-peritoneal injection every 24 hr, and the control group receiving an equivalent injected volume of vehicle (PBS) only. Time-dependent average weight was monitored every two days. The length and the width of tumors were measured at different time points with a calliper and volumes were calculated using the formula: ½ × (width)[2] × length (mm). After 10 days, blood samples (at least 500 µL/mouse) from the retro-orbital venous plexus of mice anesthetized with 1% isoflurane were collected using a heparinized capillary tube and processed for determination of the Circulating Tumor Cells (CTCs). Then, the animals were sacrificed, the excised tumors were fixed in buffered formalin and processed for paraffin sectioning. Tumor vascularization was assessed by counting vascular channels harbouring red blood cells on CD31 immuno-stained sections in 5 randomly chosen fields per section, in at least two sections per tumor at x 200 as described. Two additional experiments were carried out with the same experimental design by injecting GFP-tagged Sarc cells (1 × 10^6 cells/mouse) subcutaneously in the flanks of twenty-five six-eight weeks old, Foxn1nu/nu female nude mice (Harlan). Animals were treated with 6 mg/kg RI-3, 6 mg/kg RERF or vehicle by intra-peritoneal injection every 24 hr for 10 or 12 days. Tumor growth and the appearance of positive tumor lesions near tumors and in lungs were monitored as brightly visualized by GFP fluorescence with a MacroFluo fluorescence stereomicroscope (Leica). We searched for the presence of GFP-positive nodules on the entire surface of freshly isolated lungs. Lungs were also sliced at approximately 3-mm thickness to examine the parenchyma in depth, and the positive nodules were acquired at higher magnification.
To quantify CTCs, DNA from nucleated cells of murine blood samples (500 μl/mouse) was extracted using the QIAamp DNA Mini Kit (Qiagen), according to the manufacturer’s protocol. Quantitative RT-PCR (7900 HT Fast Real-Time PCR System, Applied Biosystems) was performed using 18 ng DNA and the SYBR Select Master Mix (Applied Biosystems) as described. Primers to human Alu-sequences [FW 5′-[…]-3′/RV 5′-CCCAGGCTGGAGTGCAGT-3′] were employed to a final concentration of 0.5 μM. The number of CTCs was calculated by comparing the obtained Ct with a standard amplification curve generated in spiking experiments (1 to 50 cells were collected by pipetting under microscopic control) which were included in every run. DNA from murine blood was included as a negative control.

In the case of “Ac-[dY][dR][Aib][dR]-NH2 (SMILES CC(=O)N[C@H](Cc1ccc(O)cc1)C(=O)N[C@H](CCCNC(=N)N)C(=O)NC(C)(C)C(=O)N[C@H](CCCNC(=N)N)C(N)=O) [RI-3]”, the “reduction of matrigel invasion (slope of cell index)” value (HT1080 cells; HT1080, 10 nM, 10% FBS, 20 hr) is reported as 64%, the IC50 (HT1080 cells; increasing concentrations plus 10% FBS, matrigel invasion 20 hr, xCELLigence, read-out: concentration at which an overall 50% reduction of cell invasion was reached) is reported as 0.01 nM and the “reduction of matrigel invasion (slope of cell index)” value [1] is reported as 47%. For the same substance, the “effect on fMLF-induced Akt phosphorylation” value ([2]; 10 nM fMLF with 10 nM peptide) was “consistently decreased”, the “effect of peptide alone on Akt phosphorylation” value ([2]; 10 nM, no fMLF) was “did not affect Akt phosphorylation” and the “reduction in fMLF-dependent phosphorylation of Akt(S473)” value (Akt(S473)) was 22%. The “reduction in fMLF-dependent phosphorylation of CREB(S133)” value (CREB(S133)) was 42%, the “reduction in fMLF-dependent phosphorylation of ERK1/2(T202/Y204/T185/Y187)” value [3] was 25% and the “reduction in fMLF-dependent phosphorylation of FAK(Y397)” value (FAK(Y397)) was 30%. For the same substance, the “reduction in fMLF-dependent phosphorylation of Fgr(Y412)” value (Fgr(Y412)) was 43%, the “reduction in fMLF-dependent phosphorylation of p38α(T180/Y182)” value (p38α(T180/Y182)) was 21% and the “reduction of cell-associated fluorescence (adhesion to endothelium)” value (“reduction … (adhesion to endothelium)” for short) ([4]; after 5 min) was 72%. The “reduction … (adhesion to endothelium)” value ([4]; after 10 min) was 50%, the “reduction … (adhesion to endothelium)” value ([4]; after 20 min) was 20% and the “reduction … (adhesion to endothelium)” value ([4]; after 40 min) was 22%. For the same substance, the “intra-tumoral microvessel density (CD31) vs vehicle-treated mice” value (Sarc cells) was “a reduced microvessel density”, the “treated mice in which no CTCs were detected” value (Sarc cells) was 4/8 and the “body weight vs vehicle-treated mice” value (Sarc cells; eight mice) was “comparable”. The “volume of tumors after 10 days” value (Sarc cells; eight mice, vehicle 330 +/− 163) was 185 +/− 82 mm^3 and the “circulating tumor cells in blood of CTC-positive mice” value (Sarc cells; Alu Real-Time PCR, vehicle 10.04 +/− 3.7 in 8/8 mice) was 2.6 +/− 2.7 CTCs/mL.
